Test results published in publication PMC3018327 (Nature immunology, 2010).

Key:
HLA-DM = HLA-DM (Homo sapiens, UniProt P28067+P28068, N110D/N191D); assay: SPR; details: complexes 5 μM injected 2 min, pH 5.35, 15 μl/min, 25 °C, Fig. 4d-f
DM-DR2 complex = assay: SPR peptide-induced dissociation of the complex of DM and empty DR2; format: binding, human; details: SPR stage 3, peptide 1 μM, pH 5.35, 30 °C; Fig. 1e
DR1 linked to DM = details: leucine zipper dimerization domains attached to DMβ and DRβ chains; cited from earlier work
DR1 = details: cited from earlier work
DR4 = details: cited from earlier work

Chain of HLA-DM (P28067 27-233 N191D): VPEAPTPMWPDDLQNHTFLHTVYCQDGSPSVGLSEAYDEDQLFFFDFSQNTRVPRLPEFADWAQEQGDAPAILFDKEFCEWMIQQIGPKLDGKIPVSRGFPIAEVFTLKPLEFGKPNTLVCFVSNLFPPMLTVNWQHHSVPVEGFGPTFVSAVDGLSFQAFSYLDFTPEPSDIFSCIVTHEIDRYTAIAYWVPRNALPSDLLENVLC
Chain of HLA-DM (P28068 19-218 N110D): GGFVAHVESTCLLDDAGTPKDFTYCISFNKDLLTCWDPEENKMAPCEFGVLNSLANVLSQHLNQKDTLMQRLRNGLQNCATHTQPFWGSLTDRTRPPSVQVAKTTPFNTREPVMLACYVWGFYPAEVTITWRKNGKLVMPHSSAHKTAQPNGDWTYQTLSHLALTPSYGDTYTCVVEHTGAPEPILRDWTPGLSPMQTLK

## CQNTLKLAT [HA3 P3 P11]
HLA-DM
  DM binding of DR1 complexes with disulfide-linked HA6 or HA3 peptides: appeared to slow DM binding

## KYVKQNCLKLAT [HA6 P-1–P11]
HLA-DM
  DM binding of DR1 complexes with disulfide-linked HA6 or HA3 peptides: not sufficient for DM binding

## MBP85-99: high-affinity peptide from myelin basic protein (amino acids 85–99) (PGSRPHLIRLFSRDA; UniProt P02686 85-99, looked up, fragment)
DM-DR2 complex
  peptide-induced dissociation of DR2 from DM: induced dissociation of DR2 from DM

## Me-YVCQNTLKLAT [HA3 P1me–P11]
HLA-DM
  DM binding of DR1 complexes with disulfide-linked HA6 or HA3 peptides: did not permit DM binding

## PKAVKQNCLKLAT [HA6 P1A]
HLA-DM
  DM binding of DR1 complexes with disulfide-linked HA6 or HA3 peptides: only low amounts of DM binding

## PVSKMRMATPLLMQA [CLIP]
DR1 linked to DM
  t1/2 of peptide dissociation from DR1 forcibly linked to DM: 10 s
DR1
  affinity of CLIP for DR1: high affinity
DR4
  affinity of CLIP for DR4: very low affinity

## VCQNTLKLAT [HA3 P2–P11]
HLA-DM
  DM binding of DR1 complexes with disulfide-linked HA6 or HA3 peptides: rapid binding

## VKQNCLKLAT [HA6 P2–P11]
HLA-DM
  DM binding of DR1 complexes with disulfide-linked HA6 or HA3 peptides: strong DM binding

## YVKQNCLKLAT [HA6 P1–P11]
HLA-DM
  DM binding of DR1 complexes with disulfide-linked HA6 or HA3 peptides: not sufficient for DM binding
